Test results from patent US11865126B2, “Method for treating anxiety disorders, headache disorders, and eating disorders with psilocybin” (priority 2019, dated 2024).

What was measured:
CCK-4-treated rats = experiment: Elevated plus maze (EPM) after CCK-4 induced panic anxiety; type: in vivo, rat
Description: This example examines the effects of psilocybin on induced panic anxiety. The elevated plus maze (EPM) is a widely used behavioral assay for rodents to assess anti-panic or anti-anxiety effects of pharmacological agents. Briefly, rodents are placed at the junction of the four arms of the maze, facing an open arm, and entries/duration in each arm are recorded over a period of time. An increase in open arm activity reflects anti-anxiety behavior (Walf et al., Nature Protocols, 2007).
Panic anxiety can be induced in rodents through administration of panicogenic drugs such as cholecystokinin tetrapeptide (CCK-4). Peripheral administration of CCK-4 leads to an anxiogenic-like action in the EPM model of anxiety in rats. The anxiogenic effect of CCK-4 can be antagonized by benzodiazepine (e.g., diazepam) treatment.
Animal handling was performed on a daily basis starting 1 week before the EPM assay. CCK-4 was prepared in saline at the dosage volume of 1 mL/kg and was intraperitoneally administered to the rats 30 min before implementation of the EPM test resulting in a CCK-4 dose of 0.2 mg/kg. CCK-4 was administered to all treatment groups except for the vehicle control (saline). Treatment groups for this study are shown below in Table 33. The EPM assay was performed 2 hours, and 24 hours following administration of psilocybin, and 1 hour after administration of diazepam.
The apparatus used in the EPM assay was a PVC maze covered with Plexiglas and subdivided into four equal exploratory arms (21×8 cm). All arms were interconnected by a small platform (8×8 cm). The apparatus was placed 59 cm above the floor. Two arms were open and two arms were closed with walls (height: 21 cm).
After the appropriate pre-treatment time, the rat was placed on the platform opposite a closed arm. The number of entries and the time spent in each arm were recorded during a 5 min period. The animal was considered as entered in an arm when it placed four paws in the arm. During the trial, animal handling and the visibility of the operator was minimized as much as possible.
The results were analyzed by analysis of variance (ANOVA). Fisher's PLSD was used for pairwise comparisons and p value s 0.05 were considered significant.

female Wistar rats = experiment: Binge eating model: chow, chocolate and total food intake
[1] = 0.2 mg/kg i.p., 30 min before EPM
[2] = positive control, 1 hour after administration

CSCC[C@H](NC(=O)[C@@H](N)Cc1c[nH]c2ccccc12)C(=O)N[C@@H](CC(=O)O)C(=O)N[C@@H](Cc1ccccc1)C(N)=O [CCK-4, cholecystokinin tetrapeptide]
Number of entries into the open arm vs saline alone (CCK-4-treated rats; [1]): significantly reduced | Time spent in the open arm vs saline alone (CCK-4-treated rats; [1]): significantly reduced

C[C@@H](Cc1ccccc1)NC(=O)[C@@H](N)CCCCN [LDX, lisdexamfetamine]
Chocolate intake during binging session vs vehicle/binge (female Wistar rats; 0.8 mg/kg daily PO, 1 hour): significantly reduced chocolate eating | Food intake over a 24 hour period (female Wistar rats; Day 1, 0.8 mg/kg daily PO): significantly reduced

CN1C(=O)CN=C(c2ccccc2)c2cc(Cl)ccc21 [Diazepam, diazepam]
Number of entries into the open arms vs CCK-4 alone (CCK-4-treated rats; [2]): significant increase | Time spent in the open arms vs CCK-4 alone (CCK-4-treated rats; [2]): significant increase
